The values below come from the METLIN SMRT retention time set (Domingo-Almenara et al. 2019).

SMILES strings stand for the structures.

This data set is described as follows: gradient 5% acetonitrile 3 min, to 50% in 2 min, to 85% in 15 min, held 3 min, 100 µL/min. Particulars: column: Zorbax Extend-C18 2.1 x 50 mm; eluents: water / acetonitrile, 0.1% formic acid. In outline: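 A Zorbax Extend-C18 column (2.1 × 50 mm, 1.8 μm) run at 100 μL/min with water and acetonitrile, both containing 0.1% formic acid, separated mixtures of ~100 pure standards. The HPLC was coupled to a quadrupole time-of-flight mass spectrometer operated in positive and negative ionization mode, with dead and dwell volumes of 40 μL and 900 μL. Each retention time was taken from a computationally picked adduct peak that was then manually inspected.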
`O=C(Nc1ccccc1C(F)(F)F)N1CCC(N2CCN(Cc3ccc(F)cc3)C(=O)C2=O)CC1` registered an RP-LC retention time of 752 s.

Consider `O=C(Cn1nc2n(c1=O)CCCCC2)Nc1ccccc1C(F)(F)F`, for which the RP-LC retention time came out at 713 s.

As for `CC(C)N1C(=O)c2cccnc2Sc2cc(NC(=O)c3ccc(F)cc3)ccc21`, the RP-LC retention time was determined as 896 s.

For the compound `COc1ccc(-c2nc3c4cnn(-c5ccccc5Cl)c4ncn3n2)cc1OC`, the RP-LC retention time worked out at 845 s.

As to `Cc1cc(C(=O)Nc2ccc(-c3nc4ccccc4o3)cc2)no1`, the RP-LC retention time was determined as 857 s.

In the case of `O=C(c1ccc(-c2cncnc2)nc1)N1CCN(c2ccccc2Cl)CC1`, the RP-LC retention time stood at 829 s.

As to `CCn1cc(C2=CCN(C(=O)Nc3ccc(OC)cc3)CC2)c2cccnc21`, the RP-LC retention time was determined as 811 s.

Take `O=C(Nc1ccc(N2CCN(Cc3ccc(F)cc3)C2=O)nc1)c1ccsc1`: the RP-LC retention time is 787 s.

Consider `O=c1c2cnn(Cc3ccccc3F)c2ncn1Cc1cccc(C(F)(F)F)c1`, for which the RP-LC retention time worked out at 928 s.

For the compound `CCC1CN2C=Nc3oc(C)c(C(=O)Nc4cccc(C(F)(F)F)c4)c3C2=N1` (configuration not stated), the RP-LC retention time is 719 s.

As to `O=C1CN(S(=O)(=O)c2cc(F)ccc2F)C2(CCCCC2)CN1CC1CC1`, the RP-LC retention time stood at 959 s.

Compound `Cc1occc1-c1nnc2sc(COc3ccccc3Cl)nn12` displayed an RP-LC retention time of 994 s.

In the case of `O=C(N[C@H]1CN2CCC1CC2)c1ccc(Cl)cc1`, the RP-LC retention time worked out at 630 s.

In the case of `COCCCn1cnc2c(-c3ccccc3)cn(CC(=O)NCc3ccc4c(c3)OCO4)c2c1=O`, the RP-LC retention time came out at 855 s.

`CCCn1c(=O)c(C)nc2cc(-c3noc(-c4cccc(N(C)C)c4)n3)ccc21` returned an RP-LC retention time of 717 s.

`CCc1ccccc1NC(=O)N1CC(n2cnnc2-c2ccccc2)C1`: the RP-LC retention time came out at 686 s.

Take `O=C(Nc1ccc(OCC(=O)N2CCN(c3ccccc3)CC2)nc1)C1CC1`: the RP-LC retention time worked out at 730 s.

Compound `COCC(C)(O)CNC(=O)c1cccnc1SC` (configuration not stated) showed an RP-LC retention time of 577 s.

The compound `CCCn1cc(CCNC(=O)c2ccc(F)cc2)c2cccnc21` returned an RP-LC retention time of 732 s.

`O=C(NCCN1C(=O)C2(CCCCC2)C1c1ccccc1)Nc1ccccc1F` (configuration not stated) displayed an RP-LC retention time of 965 s.

Turning to `O=C(CC(=O)c1ccccc1)Nc1ccc2c(c1)OCCO2`, the RP-LC retention time came to 769 s.

Consider `Cc1ccc(-c2csc(NC(=O)C(C)(C)C)n2)cc1`, for which the RP-LC retention time was 1080 s.

In turn, `Cc1cnc(CCNC(=O)NCC(C)C)n1C1CCCCCC1` displayed an RP-LC retention time of 588 s.

The compound `Cc1ccc(NC(=O)c2cnc3c(c2)c(=O)n(C)c(=O)n3-c2ccccc2)cc1` registered an RP-LC retention time of 919 s.

In turn, `Cc1cc(C)n(CCNC(=O)c2ccsc2)n1` returned an RP-LC retention time of 593 s.

For the compound `CCCC(=O)Nc1nnc(SCc2ccc(Br)cc2)s1`, the RP-LC retention time worked out at 934 s.

`N#CCCSc1ccccc1NC(=O)c1ccc([N+](=O)[O-])s1`: the RP-LC retention time amounted to 846 s.

Compound `COc1cc2oc(=O)cc(C)c2cc1[N+](=O)[O-]` had an RP-LC retention time of 764 s.

With `CCCC(=O)Nc1ccc(CCc2nc3ccc(C(=O)NCCC(C)C)cc3[nH]2)cc1`, the RP-LC retention time came out at 674 s.

As to `COc1ccc(OCc2noc(CNC(=O)Nc3ccc(Cl)c(Cl)c3)n2)cc1`, the RP-LC retention time is 917 s.

`COc1ccc(NC(=O)N2C[C@@H](F)C[C@H]2C(=O)N2CCCCC2)cc1OC` had an RP-LC retention time of 643 s.

`COC(=O)CSCC(=O)Nc1cc(C)ccc1C` had an RP-LC retention time of 729 s.

Consider `CC(C)n1cc(S(=O)(=O)N2CCN(c3ccccc3)CC2)c2cccnc21`, for which the RP-LC retention time was 1070 s.

As to `CSc1ccc(-c2nc3cnccn3c2Nc2cccc(C(=O)NC3CCCCC3)c2)cc1`, the RP-LC retention time is 892 s.

`CCn1c(=O)c(N2CCC(C(=O)NCCN3CCCCCC3)CC2)nc2cccnc21` returned an RP-LC retention time of 646 s.

Regarding `COCCNc1c(C(=O)OC)c(=O)[nH]c2c(Cl)cccc12`, the RP-LC retention time was 645 s.

`O=C(CCc1c(-c2ccc(Cl)cc2)nc2ccccn12)Nc1ccc(F)cc1` had an RP-LC retention time of 748 s.

Compound `Cc1nnc(-c2ccc(S(=O)(=O)N3CCCC(C)C3)o2)o1` (configuration not stated) yielded an RP-LC retention time of 836 s.

In the case of `Cc1ccc(-n2ccnc2SCc2nc(-c3cccc(F)c3)no2)cc1`, the RP-LC retention time came out at 971 s.

Compound `O=C(Cc1ccc(F)cc1)N1CCc2cc(-c3ccno3)ccc21` showed an RP-LC retention time of 940 s.

`O=C(Nc1cc(Cl)ccc1F)C1CCCN(c2nnc3ccccn23)C1` (configuration not stated) displayed an RP-LC retention time of 649 s.

For the compound `Cc1cccc(OCCc2noc(C3CCN(S(=O)(=O)N(C)C)C3)n2)c1` (configuration not stated), the RP-LC retention time amounted to 978 s.

The compound `CC1=C(c2ccc(C)c(C)c2)S(=O)(=O)N=C1N1CCC(NC(=O)C2CCC2)CC1` returned an RP-LC retention time of 853 s.

`COCCN1C(=O)c2ccc(-c3ccco3)n2CC1(C)C(=O)NCc1ccccc1` (configuration not stated) displayed an RP-LC retention time of 814 s.

`O=C(NCc1ccc2c(c1)OCO2)c1cn2c(n1)CSCC2` displayed an RP-LC retention time of 650 s.

Compound `Cc1ccc(S(=O)(=O)N2CCC(n3cnnc3C)CC2)c(C)c1` gave an RP-LC retention time of 713 s.

`Cc1ccc(CN2CCN(CC(=O)Nc3ccc(C)cc3)C(=O)C2=O)cc1`: the RP-LC retention time was determined as 786 s.

For the compound `Cc1cc(C)nc(SCCCNC(=O)Nc2cc(C)on2)n1`, the RP-LC retention time was 663 s.

`Cn1cc(CN2CCC(C(=O)NCCN3CCN(c4ccccc4)CC3)CC2)c2ccccc21` showed an RP-LC retention time of 571 s.

`O=C(c1ccc(F)cc1)N1CCN(c2nc(CN3CCOCC3)cs2)CC1` registered an RP-LC retention time of 597 s.

In the case of `CCOC(=O)C1CCCN(c2ncnc3c2cnn3-c2ccccc2)C1` (configuration not stated), the RP-LC retention time worked out at 1070 s.

`CCN(CC)S(=O)(=O)c1ccc2c(c1)cc(C(=O)NCCCN1CCCCC1C)n2C` (configuration not stated): the RP-LC retention time stood at 679 s.

For the compound `COC(=O)c1ccc(C(=O)NCC2CCS(=O)(=O)C2)cc1` (configuration not stated), the RP-LC retention time was determined as 620 s.

As to `Cc1ccc2[nH]cc(CCN3CC(C(=O)N4CCN(c5ccccc5)CC4)CC3=O)c2c1` (configuration not stated), the RP-LC retention time turned out to be 839 s.

Compound `O=C(Cc1cccs1)Nc1ccc(N2CCN(C3CCCCC3)C2=O)nc1` registered an RP-LC retention time of 804 s.

`Cc1ccc(CNC(=O)CCc2ccc3cc[nH]c3c2)cc1`: the RP-LC retention time is 879 s.

On to `CCCNC(=O)C1CCCN(c2nc3ncn(CC(=O)NCc4cccs4)c(=O)c3s2)C1` (configuration not stated), for which the RP-LC retention time came to 657 s.

Compound `O=C(Oc1ccc(NC2=NS(=O)(=O)c3ccccc32)cc1)c1ccccc1` registered an RP-LC retention time of 935 s.

The compound `O=C(c1ccccn1)N1CC(c2nc(-c3ccccc3)no2)C2(CCOCC2)C1` (configuration not stated) came in with an RP-LC retention time of 743 s.

As for `CCc1cc(C(=O)Nc2ccc(OC)cc2C)nc2ccnn12`, the RP-LC retention time came out at 970 s.

`CCc1nnc(-c2cccnc2N2CCN(C(=O)Nc3cc(F)cc(F)c3)CC2)o1` came in with an RP-LC retention time of 850 s.

The compound `O=C(NCc1ccco1)C1CCN(c2cc(N3CCCCC3)ncn2)CC1` had an RP-LC retention time of 632 s.

`COc1ccc(NC(=O)Cn2c(=O)cc(-c3nc(C(C)C)no3)c3ccccc32)cc1` yielded an RP-LC retention time of 938 s.

`CCc1ccc(OCC(=O)OCCNC(=O)c2ccncc2)cc1`: the RP-LC retention time was 673 s.

With `Cc1cc(C)c(S(=O)(=O)N2CC(F)(F)C[C@H]2COc2cccnc2)cc1C`, the RP-LC retention time was determined as 817 s.

`Cc1oc2ccn(Cc3cccc(F)c3)c(=O)c2c1C(=O)NCC1CCCO1` (configuration not stated) registered an RP-LC retention time of 891 s.

`Cc1[nH]nc(-c2c(C)sc(C)c2S(=O)(=O)Nc2ccc(Cl)cc2)c1C` registered an RP-LC retention time of 1060 s.

With `c1cc(CN2CCCCC2c2nncn2CC2CC2)cs1` (configuration not stated), the RP-LC retention time came to 559 s.

Turning to `CCc1nc(-c2csc(S(=O)(=O)N3CCCC(C(=O)Nc4ccc(C)c(C)c4)C3)c2)no1` (configuration not stated), the RP-LC retention time came to 1110 s.

Turning to `CCN(CC)C(=O)Cn1ccn2nc(-c3ccccc3)c(CO)c2c1=O`, the RP-LC retention time worked out at 721 s.

`COC(=O)c1ccc2c(=O)n(Cc3cccc(OC)c3)c(N3CCOCC3)nc2c1` had an RP-LC retention time of 936 s.

For the compound `CCc1cccc(NC(=O)Cc2csc3nc(-c4ccc(C)c(C)c4)cn23)c1`, the RP-LC retention time is 962 s.

In turn, `C=CCn1nnc(NCc2ccc(-c3cc(Cl)ccc3Cl)o2)n1` came in with an RP-LC retention time of 1130 s.

For the compound `Cc1cccc(CN2CCC(CNC(=O)C3CCCN(c4cc(=O)n(C)c(=O)n4C)C3)CC2)c1` (configuration not stated), the RP-LC retention time stood at 599 s.

In turn, `COc1ccc(NC(=O)CN2C(=O)CC(c3cccs3)=Nc3ccccc32)cc1` had an RP-LC retention time of 899 s.

Compound `Cc1cc(C)nc(N2CCN(c3ccc(F)cc3)CC2)n1` yielded an RP-LC retention time of 876 s.

For `Cc1ccc(NC(=O)C2CCN(S(C)(=O)=O)c3ccccc3O2)cc1` (configuration not stated), the RP-LC retention time came to 892 s.

Take `CCn1c(=O)c(C)nc2cc(-c3noc(/C=C/c4ccc(OC)c(OC)c4)n3)ccc21`: the RP-LC retention time turned out to be 1010 s.

`O=c1c(NCCc2ccccc2)nc2ccncc2n1Cc1ccccc1`: the RP-LC retention time is 742 s.

`O=C(Cn1nc(-c2ccccc2)c2cc(Cl)ccc21)NC1CCCC1` yielded an RP-LC retention time of 1130 s.

Compound `COCCC(=O)N1CC2CN(S(=O)(=O)c3ccc(C)cc3)CC(C1)O2` came in with an RP-LC retention time of 684 s.

In turn, `COC(=O)c1cnc2nc(C)ccc2c1Nc1ccc(S(N)(=O)=O)cc1` showed an RP-LC retention time of 586 s.
